Measurements published in ChEMBL document CHEMBL4038316, “Enantioselective Synthesis and in Vivo Evaluation of Regioisomeric Analogues of the Antimalarial Arterolane” (J Med Chem, 2017).
≈ marks a conversion by molar mass, not a printed value.

Key:
Plasmodium berghei [1] = test: Antiplasmodial activity against Plasmodium berghei infected in Swiss Webster mouse assessed as cure rate at 4 mg/kg/day administered for 4 days via oral gavage starting at 1 hr post infection measured after 30 days relative to control; format: functional
Liver [2] = test: (§1) Half life in mouse liver microsomes; format: ADME, microsome; conditions: microsomes
Plasmodium falciparum [3] = test: Antiplasmodial activity against chloroquine-resistant Plasmodium falciparum W2 infected in human RBC after 48 hrs by YOYO-1 staining-based flow cytometry method; format: functional; conditions: W2, 48 h
Liver [4] = test: (§2) Half life in mouse liver microsomes in absence of NADPH; format: ADME, microsome; conditions: microsomes
Liver [5] = conditions: mouse, microsomes
Description: (§3) Intrinsic clearance in mouse liver microsomes assessed per mg of protein

Plasmodium berghei [6] = test: Antiplasmodial activity against Plasmodium berghei infected in Swiss Webster mouse assessed as cure rate at 6 mg/kg/day administered for 4 days via oral gavage starting at 1 hr post infection measured after 30 days relative to control; format: functional
Liver [7] = test: Metabolic stability in mouse liver microsomes in absence of NADPH; format: ADME, microsome
in vitro = conditions: mouse, liver microsomes
Description: as §3

[8] = as §1; format: ADME, microsome; conditions: liver microsomes
Plasmodium berghei [9] = test: Antiplasmodial activity against Plasmodium berghei infected in Swiss Webster mouse assessed as cure rate at 13.6 mg/kg/day administered for 4 days via oral gavage starting at 1 hr post infection measured after 30 days relative to control; format: functional
Plasmodium berghei [10] = test: Antiplasmodial activity against Plasmodium berghei infected in Swiss Webster mouse assessed as cure rate at 9.5 mg/kg/day administered for 4 days via oral gavage starting at 1 hr post infection measured after 30 days relative to control; format: functional
Plasmodium berghei [11] = test: Antiplasmodial activity against Plasmodium berghei infected in Swiss Webster mouse assessed as cure rate at 10 mg/kg/day administered for 4 days via oral gavage starting at 1 hr post infection measured after 30 days relative to control; format: functional
physchem = conditions: PBS, pH 7.4
Description: (§4) Kinetic solubility of the compound in PBS at pH 7.4

Plasmodium berghei [12] = test: Antiplasmodial activity against Plasmodium berghei infected in Swiss Webster mouse assessed as cure rate at 1 mg/kg/day administered for 4 days via oral gavage starting at 1 hr post infection measured after 30 days relative to control; format: functional
Plasmodium berghei [13] = test: Antiplasmodial activity against Plasmodium berghei infected in Swiss Webster mouse assessed as increase in cure rate administered for 4 days via oral gavage starting at 1 hr post infection measured after 30 days; format: functional; conditions: for ED50: Plasmodium berghei, po, read-out: PD50
Plasmodium berghei [14] = test: Antiplasmodial activity against Plasmodium berghei infected in Swiss Webster mouse assessed as cure rate at 4 mg/kg/day administered for 2 days via oral gavage starting at 1 hr post infection measured after 30 days relative to control; format: functional
Plasmodium berghei [15] = test: Antiplasmodial activity against Plasmodium berghei infected in Swiss Webster mouse assessed as cure rate at 4 mg/kg/day administered for 3 days via oral gavage starting at 1 hr post infection measured after 30 days relative to control; format: functional
Plasmodium berghei [16] = test: Antiplasmodial activity against Plasmodium berghei infected in Swiss Webster mouse assessed as cure rate at 40 mg/kg/day administered for 1 day via oral gavage starting at 1 hr post infection measured after 30 days relative to control; format: functional
Plasmodium berghei [17] = test: Antiplasmodial activity against Plasmodium berghei infected in Swiss Webster mouse assessed as cure rate at 80 mg/kg/day administered for 1 day via oral gavage starting at 1 hr post infection measured after 30 days relative to control; format: functional
Plasmodium berghei [18] = test: Antiplasmodial activity against Plasmodium berghei infected in Swiss Webster mouse assessed as cure rate at 2 mg/kg/day administered for 4 days via oral gavage starting at 1 hr post infection measured after 30 days relative to control; format: functional
[19] = as §2; format: ADME, microsome; conditions: liver microsomes
Plasmodium berghei [20] = test: Antiplasmodial activity against Plasmodium berghei infected in Swiss Webster mouse assessed as cure rate at 40 mg/kg/day administered for 2 days via oral gavage starting at 1 hr post infection measured after 30 days relative to control; format: functional
Plasmodium berghei [21] = test: Antiplasmodial activity against Plasmodium berghei infected in Swiss Webster mouse assessed as cure rate at 4 mg/kg/day administered for 1 day via oral gavage starting at 1 hr post infection measured after 30 days relative to control; format: functional
Plasmodium berghei [22] = test: Antiplasmodial activity against Plasmodium berghei infected in Swiss Webster mouse assessed as cure rate at 0.5 mg/kg/day administered for 4 days via oral gavage starting at 1 hr post infection measured after 30 days relative to control; format: functional
Plasmodium falciparum [23] = test: Antiplasmodial activity against Plasmodium falciparum Cam3.2 infected in human RBC assessed as time required to reduce early ring stage parasite viability by 50% by SYTO 61-staining-based flow cytometry; format: functional
Plasmodium falciparum [24] = test: Antiplasmodial activity against Plasmodium falciparum Cam3.2_rev infected in human RBC assessed as time required to reduce early ring stage parasite viability by 50% by SYTO 61-staining-based flow cytometry; format: functional
[25] = buffer, pH 7.4
Description: as §4

Row | SMILES | Activity (Plasmodium berghei [1]) | EC50 (Plasmodium falciparum [3]) | Activity (Plasmodium berghei [6]) | Stability (Liver [7]) | also measured
1 | O=C(C[C@H]1CC[C@]2(CC1)OO[C@]1(O2)C2CC3CC(C2)CC1C3)N1CCNCC1 | 100% | 1.9 nM | 100% |  | t1/2 (Liver [2]): 0.802 h; t1/2 (Liver [4]): 1.48 h; CLH (Liver [5]): 14.4 µL/min
2 | NCCNC(=O)C[C@H]1CC[C@]2(CC1)OO[C@]1(O2)C2CC3CC(C2)CC1C3 | 0% | 3.6 nM | 20% |  | t1/2 (Liver [2]): 1.07 h; t1/2 (Liver [4]): 1.17 h; CLH (Liver [5]): 10.8 µL/min
3 | CC(C)(CN)CNC(=O)C[C@H]1CC[C@]2(CC1)OO[C@]1(O2)C2CC3CC(C2)CC1C3 | 40% | 2.6 nM | 100% | Stable | t1/2 (Liver [2]): 2.68 h; CLH (Liver [5]): 4.3 µL/min
4 | N[C@H]1CC[C@H](NC(=O)C[C@H]2CC[C@]3(CC2)OO[C@]2(O3)C3CC4CC(C3)CC2C4)CC1 | 80% | 4.5 nM | 80% |  | 
5 | NC1CCN(C(=O)C[C@H]2CC[C@]3(CC2)OO[C@]2(O3)C3CC4CC(C3)CC2C4)CC1 | 100% | 1.3 nM | 100% | Stable | t1/2 (Liver [2]): 4.62 h; CLH (Liver [5]): 2.5 µL/min
6 | NC(=O)CNC(=O)C[C@@H]1CCC[C@]2(C1)OOC1(O2)C2CC3CC(C2)CC1C3 (stereo not given in full) |  | 10.6 nM |  | Stable | microsomal CLint (in vitro): 18.6 µL/min/mg; half-life [8]: 0.622 h
7 | CN1CCN(C(=O)C[C@@H]2CCC[C@]3(C2)OOC2(O3)C3CC4CC(C3)CC2C4)CC1 (stereo not given in full) | 0% | 4.4 nM | 0% |  | 
8 | CC(C)(N)CNC(=O)C[C@H]1CC[C@]2(CC1)OOC1(O2)C2CC3CC(C2)CC1C3.Cc1ccc(S(=O)(=O)O)cc1 (stereo not given in full) |  |  |  |  | Activity (Plasmodium berghei [9]): 100%
9 | CC(C)(CN)CNC(=O)C[C@@H]1CCC[C@]2(C1)OOC1(O2)C2CC3CC(C2)CC1C3 (stereo not given in full) | 0% | 4.1 nM | 0% | Stable | microsomal CLint (in vitro): 10.8 µL/min/mg; half-life [8]: 1.07 h
10 | CN1CCN(C(=O)C[C@H]2CC[C@]3(CC2)OO[C@]2(O3)C3CC4CC(C3)CC2C4)CC1 | 0% | 4.9 nM | 0% |  | 
11 | O=C(C[C@@H]1CCC[C@]2(C1)OOC1(O2)C2CC3CC(C2)CC1C3)N1CCNCC1 (stereo not given in full) | 0% | 2.9 nM | 20% | Stable | microsomal CLint (in vitro): 27.2 µL/min/mg; half-life [8]: 0.425 h
12 | CC(C)(N)CNC(=O)C[C@@H]1CCC[C@]2(C1)OOC1(O2)C2CC3CC(C2)CC1C3.Cc1ccc(S(=O)(=O)O)cc1 (stereo not given in full) |  |  |  |  | Activity (Plasmodium berghei [9]): 100%
13 | CC(C)(N)CNC(=O)C[C@@H]1CCC[C@]2(C1)OOC1(O2)C2CC3CC(C2)CC1C3 (stereo not given in full) |  | 3 nM | 60% | Stable | Activity (Plasmodium berghei [10]): 100%; microsomal CLint (in vitro): 4.1 µL/min/mg; half-life [8]: 2.82 h; Activity (Plasmodium berghei [11]): 100%; solubility kinetic (physchem): 429 µM (≈ 168 µg/mL); Activity (Plasmodium berghei [12]): 0%; PD100 (Plasmodium berghei [13]): 10 mg/kg/day; ED50 (Plasmodium berghei [13]): 6 mg/kg/day
14 | O=C(C[C@@H]1CCC[C@]2(C1)OOC1(O2)C2CC3CC(C2)CC1C3)N1CCOCC1 (stereo not given in full) | 0% | 6.8 nM | 0% |  | 
15 | O=C(C[C@@H]1CCC[C@]2(C1)OOC1(O2)C2CC3CC(C2)CC1C3)N1CCCCC1 (stereo not given in full) |  | 31.4 nM |  |  | 
16 | NC1CCN(C(=O)C[C@@H]2CCC[C@]3(C2)OOC2(O3)C3CC4CC(C3)CC2C4)CC1 (stereo not given in full) |  | 3.9 nM |  | Stable | microsomal CLint (in vitro): 8.2 µL/min/mg; half-life [8]: 1.41 h; PD100 (Plasmodium berghei [13]): 4 mg/kg/day
17 | NCCNC(=O)C[C@@H]1CCC[C@]2(C1)OOC1(O2)C2CC3CC(C2)CC1C3 (stereo not given in full) |  | 5.4 nM | 100% |  | Activity (Plasmodium berghei [14]): 0%; Activity (Plasmodium berghei [15]): 20%; microsomal CLint (in vitro): 8.2 µL/min/mg; half-life [8]: 1.41 h; Activity (Plasmodium berghei [16]): 0%; Activity (Plasmodium berghei [17]): 20%; Activity (Plasmodium berghei [18]): 0%; Activity (Plasmodium berghei [12]): 0%; half-life [19]: 2.27 h; Activity (Plasmodium berghei [20]): 100%; Activity (Plasmodium berghei [21]): 0%; Activity (Plasmodium berghei [22]): 0%
18 | N[C@H]1CC[C@H](NC(=O)C[C@@H]2CCC[C@]3(C2)OOC2(O3)C3CC4CC(C3)CC2C4)CC1 (stereo not given in full) | 60% | 5.9 nM | 100% |  | 
19 | NC(=O)CNC(=O)C[C@H]1CC[C@]2(CC1)OO[C@]1(O2)C2CC3CC(C2)CC1C3 | 0% | 9.2 nM | 0% | Stable | t1/2 (Liver [2]): 2.07 h; CLH (Liver [5]): 5.6 µL/min
20 | O=C(C[C@H]1CC[C@]2(CC1)OO[C@]1(O2)C2CC3CC(C2)CC1C3)N1CCCCC1 | 0% | 57 nM | 0% |  | 
21 | O=C(C[C@H]1CC[C@]2(CC1)OO[C@]1(O2)C2CC3CC(C2)CC1C3)N1CCOCC1 | 0% | 20.7 nM | 0% |  | 
22 | c1cc([C@H]2CC[C@]3(CC2)OO[C@]2(O3)C3CC4CC(C3)CC2C4)ccc1OCCN1CCOCC1 [ARTEFENOMEL] |  |  |  |  | Time (Plasmodium falciparum [23]): 5 h; Time (Plasmodium falciparum [24]): 2 h
23 | C[C@H]1[C@@H](O)O[C@@H]2O[C@@]3(C)CC[C@H]4[C@H](C)CC[C@@H]1[C@@]24OO3 [ARTENIMOL] |  |  |  |  | Time (Plasmodium falciparum [23]): 3 h; Time (Plasmodium falciparum [24]): 1 h
24 | O=C(O)Cc1ccccc1Nc1c(Cl)cccc1Cl [DICLOFENAC] |  |  |  |  | CLH (Liver [5]): 12.5 µL/min
25 | Cc1ncc2n1-c1ccc(Cl)cc1C(c1ccccc1F)=NC2 [MIDAZOLAM] |  |  |  |  | t1/2 (Liver [2]): 0.0275 h; CLH (Liver [5]): 420 µL/min
26 | CC(C)(N)CNC(=O)C[C@H]1CC[C@]2(CC1)OO[C@]1(O2)C2CC3CC(C2)CC1C3 [OZ277] | 20 - 80% | 2.5 nM | 80 - 100% | Stable | Time (Plasmodium falciparum [23]): 3 h; t1/2 (Liver [2]): 2.13 h; Time (Plasmodium falciparum [24]): 1 h; Activity (Plasmodium berghei [11]): 100%; Activity (Plasmodium berghei [12]): 0%; PD100 (Plasmodium berghei [13]): 10 mg/kg/day; ED50 (Plasmodium berghei [13]): 4 mg/kg/day; CLH (Liver [5]): 5.4 µL/min
27 | C[C@]12CC[C@H]3[C@@H](CCC4=CC(=O)CC[C@@]43C)[C@@H]1CC[C@@H]2O [TESTOSTERONE] |  |  |  |  | Kinetic_solubility [25]: 315 µM
